Test results taken from publication PMC5962351 (Nature, 2018).

Assays:
Type in all cases: binding
[1] = target: GluN1 (GluN1/GluN2B ∆ATD NMDA receptor) (Xenopus laevis, UniProt A0A1L8F5J9+A7XY94, A0A1L8F5J9:DEL23-393/A0A1L8F5J9:G610R); experiment: X-ray crystal structure
[2] = target: GluN1 (GluN1/GluN2B NMDA receptor) (Xenopus laevis, UniProt A0A1L8F5J9+A7XY94)
[3] = target: GluN1 (GluN1/GluN2B NMDA receptor) (Xenopus laevis, UniProt A0A1L8F5J9+A7XY94, A0A1L8F5J9:G610R); experiment: competition with 3H-MK-801, scintillation proximity assay

SMILES	Kd [1]	Kd [2]	Ki [3]
C[C@]12N[C@H](Cc3ccccc31)c1ccccc12 [MK-801]	1600 ± 300 nM	111 ± 8.5 nM	–
CC12CC3CC(C)(C1)CC(N)(C3)C2 [memantine]	–	–	~147000 nM
